According to US5521315A, “Olefin substituted long chain compounds” (priority 1993, dated 1996):
Where “and” joins values, the source holds several entries; their conditions need not be identical. Equal entries are not always repeated. Entries after “also recorded” stand apart in the source; their conditions may differ. Where two headings read alike, the source gives them in different places.

How the values were obtained:
[1] = system: CMV promoter activity in transformed (adenovirus) cells; assay: CMV promoter assay (gene transcription and translation; cytotoxicity in transformed cells); format: cell-based
Source text: (§1) FIG. 18 illustrates data regarding proliferative activity of various inventive compounds for inducting CMV promoter activity. The CMV promoter assay measures gene transcription and translation activity wherein any active compounds will have cytotoxic activity to inhibit cellular protein synthesis machinery in transformed (adenovirus) cells.
as §1, with “This example” for “FIG. 18”

mast cell degranulation = assay: Serotonin release assay (inhibition of mast cell degranulation); format: cell-based; design: INCORP / TOTAL: unit not given here; settings: 50 μM; for RELEASE-SPONT: average corrected for spontaneous release; for AVERAGE % RELEASE: average of duplicates; for inhibition at 50 µM: Mast cell
Source text: A serotonin release assay is utilized to study the utility of the inventive compounds for treatment of asthma and allergy. […] This assay measures mast cell degranulation, which is an early phase reaction to allergen challenge. Mast cells grown in tissue culture are first loaded with ^3 H serotonin, which is incorporated into the granules in the cells. The mast cells are sensitized with antigen specific monoclonal IgE, and then triggered to degranulate with the specific antigen (dinitorphenolbound to BSA (DNP)). When the cells degranulate, ^3 H Serotonin is released into the medium, and can be measured directly. The ability of the inventive compounds to inhibit the degranulation response is determined by the decrease in ^3 H Serotonin released in the presence of drug and is represented as % INHIBITION.
Specifically, the serotonin release assay seeds 2×10^5 cells in 0.5 ml medium in duplicate for spontaneous release, IgE+DNP, IgE+DNP+EtOH (vehicle control), and inventive compounds. […] The cells are incubated for 18 hours at 37° C. in 5% CO2, washed twice with 0.5 ml Isotonic Buffer (25 mM disodium PIPES pH 7.1,100 mM NaCl, 5 mM KCl, 5 mM glucose, 0.4 mM MgCl2, 1mM CaCl2, 0.1% BSA), and sterile filtered. 250 μl Isotonic Buffer is added per well and the plates are equilibrated in an incubator for about 10 min. Drug is added and cells are activated with 40 ng/ml DNP-BSA (1 mg/ml Diluted 1:200 in Isotonic Buffer) for 45 minutes using 2 μl/250 μl. Spontaneous release is determined in incubated cells with 250 μl Isotonic Buffer for 45 minutes and the reaction is stopped by removing supernatant and centrifuging at ~4000 rpm in microfuge for 15 seconds to remove any detached cells. Released radiolableled serotonin is counted. To determine amount of ^3 H-serotonin incorporated into the cells, (a) remove Isotonic Buffer and lyse cells by adding 250 μl 1% Triton-X100 in PBS, (b) add to 5 ml scintillation fluid, (c) wash 2× with Triton/PBS, and (d) add washes to scintillation tube. Percent serotonin release is calculated by dividing the amount of released serotonin by the sum of incorporated plus released serotonin and correcting for spontaneous released serotonin. Compound inhibition is calculated by dividing the percent serotonin release in the presence of a compound by the percent serotonin release in the absence of the compound.
This assay is described above and provides an in vitro model for an allergy and asthma therapeutic product.

[2] = system: PBMC (peripheral blood mononuclear cells); assay: Two-way mixed lymphocyte reaction (MLR), proliferation of PBMC to allogeneic stimulation; format: cell-based, human; settings: for mixed lymphocyte reaction activity: FIGS. 1 and 2
Source text: Various in vitro assays can be used to measure effects of the inventive compounds to module immune activity and have antitumor activity using a variety of cellular types. For example, a mixed lymphocyte reaction (MLR) provides a valuable screening tool to determine biological activity of each inventive compound. In the MLR, PBMCs (peripheral blood mononuclear cells) are obtained by drawing whole blood from healthy volunteers in a heparinized container and diluted with an equal volume of hanks balanced salt solution (HBSS). This mixture is layered on a […] density gradient, such as a Ficoll-Hypaque® gradient (specific gravity 1.08), and centrifuged at 1000×g for 25 minutes at room temperature or cooler. PBMC are obtained from a band at a plasma-Ficoll interface, separated and washed at least twice in a saline solution, such as HBSS. Contaminating red cells are lysed, such as by ACK lysis for 10 min at 37° C., and the PBMCs are washed twice in HBSS. The pellet of purified PBMCs is resuspended in complete medium, such as RPMI 1640 plus 20% human inactivated serum. Proliferative response of PBMC to allogeneic stimulation is determined in a two-way MLR performed in a 96-well microliter plate. Briefly, approximately 10^5 test purified PBMC cells in […] complete medium are co-cultured with approximately 10^5 autologous (control culture) or allogeneic (stimulated culture) PBMC cells, wherein the allogeneic cells are from HLA disparate individuals. Varying doses of compounds (drug) are added at the time of addition of cells to the microtiter plate. The cultures are incubated for 6 days at 37° C. in a 5% CO2 atmosphere. At the conclusion of the incubation tritiated thymidine is added (for example, […] of 40 to 60 Ci/mmole) and proliferation determined by liquid scintillation counting.
This example illustrates a mixed lymphocyte reaction assay of inventive compounds by showing the IC50 value of each compound in this assay and a dose response of several compounds to illustrate an IC50 determination.

[3] = system: PBMC in mixed lymphocyte assay culture; assay: Percent viable cells in mixed lymphocyte assay culture after six days; format: cell-based, human; settings: for cytotoxicity in mixed lymphocyte assay culture: 100 μM, six days of culture
human lymphocytes [4] = assay: IL-2 induced blastogenesis assay; format: cell-based; settings: human IL-2, six days; FIG. 12
Description: (§2) Briefly, human lymphocytes are obtained from blood from normal volunteers and plated into wells at 2×10^5 cells/well. Human IL-2 ([…] or 5 μl of a 100 U/ml solution) and drug at various concentrations are added to each well. The cells are incubated for six days and then proliferation is determined by a standard tritiated thymidine incorporation procedure. […] However, both CT1406 and CT1442 were active, as is shown by IC50 values in FIG. 12.
as §2, with “This example illustrates the effects of four inventive compounds to inhibit proliferation of human lymphocytes in an IL-2 induced blastogenesis in vitro assay. […] Briefly,” for “Briefly,”, “cells am” for “cells are”

murine thymocyte = assay: Murine thymocyte stimulated by ConA and IL-2 (T cell immune suppression); format: cell-based; settings: FIGS. 8 and 9
Description: A thymocyte costimulator assay is conducted to evaluate the inventive compounds to inhibit activation and proliferation of thymocytes caused by stimulation with Con A and interleukin-1 (IL-1), or […]. Thymuses are obtained from mice (e.g., female Balb/C mice) and the thymuses are removed and dissociated into culture media (e.g., RPMI 1640 without serum supplementation). The dissociated thymus tissue and cell suspension is transferred to centrifuge tubes and allowed to settle, washed with HBSS and resuspended in serum-supplemented culture media (e.g., RPMI 1640 with 10% fetal calf serum). Any contaminating red cells are lysed, and viable cells are resuspended and counted. Thymocytes are plated (e.g., 96-well plates at a density of 2×10^5 cells/well) and a stimulating agent, such as Con A, IL-1 (e.g., IL-1α) or IL-2 is added to the well. The cells are incubated for 4 days at 37° C. On the fourth day, the cells are pulsed with tritiated thymidine and cell proliferation determined. Inventive compounds are added at the time of stimulating agent addition.
A third assay measures an ability of an inventive compound to inhibit IL-2-induced proliferation of murine thymocytes. Thymus glands are obtained from 4-6 week old mice and plated as a single cell suspension into flat bottomed wells in RPMI 1640 medium supplemented with 10% fetal calf serum. The inventive compounds are added to appropriate wells and the cells are incubated for 1-2 hrs. Concanavilin A (ConA, 0.25 mg/ml) and […] (20 ng/ml) are added and the plates are incubated for 4 days. Cell proliferation is determined as above.
FIG. 8 compares T cell immune suppression data of thirteen inventive compounds by comparing their IC50 values in a murine thymocyte stimulated by ConA and IL-2 in vitro model.

human lymphocytes [5] = assay: CD3 blastogenesis assay; format: cell-based; settings: IL-2 or CD3 blastogenesis; FIG. 13
Description: (§3) The CD3 blastogenesis assay is virtually identical to the IL-2 blastogenesis assay described herein, except a human anti-CD3 monoclonal antibody (4 μg/ml, Boehinger Manheimm) is used instead of human IL-2 and the cells are incubated for only three days.
as §3, with “This example illustrates various IC50 values of five inventive compounds as determined by an IL-2 blastogenesis assay described in example 44 above or a CD3 blastogenesis assay. The” for “The”

## C=CCCCCCCCCCn1c(=O)c2[nH]cnc2n(C)c1=O [CT1406, 1-(10-undecenyl)-3-methylxanthine]
[1]
  IC50: 60 µM
Mast cell degranulation; Table 4
  RELEASE-SPONT: 3.26%
  AVERAGE % RELEASE: 19.81%
  inhibition at 50 µM: 59.4%
[2]
  mixed lymphocyte reaction activity: the most potent activity
[2]; Homo sapiens, PBMC, FIGS. 3 and 4
  IC50: 20 µM
[3]
  cytotoxicity in mixed lymphocyte assay culture: the most cytotoxic at 100 μM
[3]; cytotoxicity at 100 μM vs MLR IC50
  therapeutic window: significant therapeutic window
Human lymphocytes [4]
  activity in IL-2 blastogenesis assay: active

## C=CCCCCn1c(=O)c2c(ncn2COC(=O)C(C)(C)C)n(C)c1=O [CT1441, 1-(5-hexenyl)-3-methyl-7-methylpivaloylxanthine]
[1]; Table 2, read-out: IC50
  IC50: 300 µM
Mast cell degranulation
  activity in serotonin release assay: appear to be quite potent
Mast cell degranulation; Table 4
  % INHIBITION: 107.89%
  AVERAGE % RELEASE: 15.92%
Mast cell degranulation; Table 4, duplicate wells
  % RELEASE: 15.85% and 16.00%
  INCORP: 22567 and 24238
  RELEASE: 2125 and 2308
  RELEASE X2: 4250 and 4616
  TOTAL: 26817 and 28854
Mast cell degranulation; Table 5
  % INHIBITION: 107.89%
Murine thymocyte
  T cell immune suppressing activity: potent immune suppressing activity

## CC/C=C\CCCCCn1c(=O)c2[nH]cnc2n(C)c1=O [CT1442, 1-(6-cis-nonenyl)-3-methylxanthine]
Mast cell degranulation
  activity in serotonin release assay: increases the activity
Mast cell degranulation; Table 4
  RELEASE-SPONT: 2.94%
  AVERAGE % RELEASE: 19.49%
  inhibition at 50 µM: 63.4%
[2]
  mixed lymphocyte reaction activity: the most potent activity
[3]
  cytotoxicity in mixed lymphocyte assay culture: little or no cytotoxicity at concentrations well above its effective concentrations
Murine thymocyte
  T cell immune suppressing activity: potent immune suppressing activity
Human lymphocytes [4]
  activity in IL-2 blastogenesis assay: active

## CCCCC/C=C\C/C=C\CCCCCCCCn1c(=O)c2c(ncn2C)n(C)c1=O [CT1524, 1-(cis,cis-9,12-octadecadienyl)-3,7-dimethylxanthine]
[1]
  IC50: 50 µM
Mast cell degranulation
  activity in serotonin release assay: may be showing some toxicity at the concentration of 50 μM
Mast cell degranulation; Table 4
  RELEASE-SPONT: 13.90%
  AVERAGE % RELEASE: 30.46%
  inhibition at 50 µM: -73.3%
[2]
  mixed lymphocyte reaction activity: showed activity within dose ranges achievable in vivo
Murine thymocyte
  T cell immune suppressing activity: potent immune suppressing activity
Human lymphocytes [5]
  immune suppressing activity in blastogenesis assays: significant immune suppressing activity

## C=CCCCCCCCCCn1c(=O)c2c(ncn2C)n(C)c1=O [CT2501, 1-(10-undecenyl)-3,7-dimethylxanthine]
[1]
  IC50: 200 µM
Mast cell degranulation
  activity in serotonin release assay: the two most potent compounds in this group
Mast cell degranulation; Table 4
  RELEASE-SPONT: 2.50%
  AVERAGE % RELEASE: 19.06%
  inhibition at 50 µM: 68.8%
[2]
  mixed lymphocyte reaction activity: showed activity within dose ranges achievable in vivo
[3]
  cytotoxicity in mixed lymphocyte assay culture: little or no cytotoxicity at concentrations well above its effective concentrations
Human lymphocytes [5]
  immune suppressing activity in blastogenesis assays: significant immune suppressing activity

## CC/C=C/CCCCCn1c(=O)c2c(ncn2C)n(C)c1=O [CT2512, 1-(6-trans-nonenyl)-3,7-dimethylxanthine]
[1]
  IC50: 50 µM
Mast cell degranulation
  activity in serotonin release assay: appears to increase the activity; also recorded: increases the activity
Mast cell degranulation; Table 4
  RELEASE-SPONT: 1.65%
  AVERAGE % RELEASE: 18.20%
  inhibition at 50 µM: 79.5%
Human lymphocytes [5]
  immune suppressing activity in blastogenesis assays: significant immune suppressing activity

## Cyclosporin A [reference compound]
Human lymphocytes [4]
  activity in IL-2 blastogenesis assay: does not show significant activity
Human lymphocytes [5]
  immune suppressing activity in blastogenesis assays: generally not very active
